Experimental findings from patent US5578592A, “Cephalosporin derivatives” (Pfizer Inc., priority 1992, dated 1996) are described below.

Common to all, as to type: cell-based
In one assay the test system is E. Coli 10418. In words: In vitro antibacterial activity (MIC), E. Coli 10418. The note with it: Escherichia coli.
The next assay has as its system H. Influenzae Q1. The assay is described as follows: In vitro antibacterial activity (MIC), H. Influenzae Q1. As to conditions: Haemophilus influenzae.
The subject of the next assay is H. influenzae W/M 493. The assay is described as follows: In vitro antibacterial activity (MIC), H. influenzae W/M 493. The note with it: Haemophilus influenzae.
In the next assay the test system is S. aureus Oxford. The assay is described as follows: In vitro antibacterial activity (MIC), S. aureus Oxford. The note with it: Staphylococcus aureus.
The test system of a further assay is S. aureus Russell. The assay is described as follows: In vitro antibacterial activity (MIC), S. aureus Russell. The note with it: Staphylococcus aureus.
The subject of a further assay is S. epidermis PHLN20. The assay is described as follows: In vitro antibacterial activity (MIC), S. epidermis PHLN20.

For `CO/N=C(\C(=O)N[C@@H]1C(=O)N2C(C(=O)O)=C3[C@H]4Oc5ccccc5[C@H]4[C@@H]3S[C@H]12)c1csc(N)n1` [Example 14, Sodium (4S,8R,9S,11R,12R)-12-[2-(2-aminothiazol-4-yl)-2-(Z)-methoxy-iminoacetamido]-13-oxo-5-oxa-10-thia-1-aza-6,7-benzotetracyclo[9.2.0.0^3,9.0^4,8]tridec-2-ene-carboxylate], the MIC was 0.12 µg/mL in the assay with E. Coli 10418; less than 0.06 µg/mL against H. Influenzae Q1; 0.5 µg/mL against H. influenzae W/M 493; 0.5 µg/mL against S. aureus Oxford; 1 µg/mL in the assay with S. aureus Russell; 0.25 µg/mL in the assay on S. epidermis PHLN20.
